# Experimental data published in article PMC4160570, “Effects of proarrhythmic drugs on relaxation time and beating pattern in rat engineered heart tissue” (Basic Research in Cardiology, 2014).
# Like-named read-outs stand apart in the source and are kept apart here.
# Tests used:
# mouse = conditions: in vivo; cited from earlier work
# [1] = tested on: rat engineered heart tissue (EHT); test: Video-optical analysis of contractile parameters of spontaneously beating rat EHTs (50 nM epinephrine); conditions: for significant T2 prolongation (p<0.05 and at least 15 % vs baseline): 1-, 10-, 100-fold FTPC, 50 nM epinephrine, n = 4–8; for irregular beating as the primary effect: sinusoidal fluctuation of twitch amplitudes, time dependent; for ability to mimic the effect of JTV519 on 4AP-induced changes: flecainide 0.5 µM; for effect on 4AP-induced beating irregularity and aftercontractions / T2 values: 4AP 10 mM; for effect on 4AP-induced beating irregularity and aftercontractions: SEA0400 2 µM or JTV519 2 µM; for relaxation remaining prolonged with 4AP in presence of inhibitor: high concentration of 4AP plus SEA0400 or JTV519
# rat = conditions: cited from earlier work
# [2] = 4AP 10 mM in absence and presence of the blocker, SEA0400 2 µM, JTV519 2 µM
structure (smiles),measurement,setting,value
"CC(C)NCC(O)c1ccc(NS(C)(=O)=O)cc1 (racemic) [D,L-sotalol]",LD50,mouse,"790 mg∙kg^-1 (mouse, i. p.)"
same,T2-effective concentrations,[1],100 fold FTPC
same,published IKs IC50 relative to threshold for group 1 or 2 effects,[1],at or below the threshold for group 1 or 2 effects
same,significant T2 prolongation (p<0.05 and at least 15 % vs baseline),[1],Significant T2 prolongations
CCN(CC)CCCN(c1ccccc1)C1Cc2ccccc2C1 [Aprindine],significant T2 prolongation (p<0.05 and at least 15 % vs baseline),[1],Significant T2 prolongations
COc1ccc(CCN2CCC(Nc3nc4ccccc4n3Cc3ccc(F)cc3)CC2)cc1 [Astemizole],LD50,mouse,"35 mg∙kg^-1 (mouse, i. v.)"
same,effect on force (group 3),[1]; 1–100× FTPC,decrease in force
CC(C)COCC(CN(Cc1ccccc1)c1ccccc1)N1CCCC1 (stereo not shown) [Bepridil],published IKs IC50 relative to threshold for group 1 or 2 effects,[1],at or below the threshold for group 1 or 2 effects
same,significant T2 prolongation (p<0.05 and at least 15 % vs baseline),[1],Significant T2 prolongations
same,irregular beating as the primary effect,[1],induced irregular beating
COc1cc(N)c(Cl)cc1C(=O)NC1CCN(CCCOc2ccc(F)cc2)CC1OC (stereo not shown) [Cisapride],LD50,rat; in vivo,"4.166 mg∙kg^-1 (rat, p. o.)"
same,significant T2 prolongation (p<0.05 and at least 15 % vs baseline),[1],Significant T2 prolongations
CN(C)CCOC(c1ccccc1)c1ccccc1 [Diphenhydramine],effect on contraction time T1 (group 3),[1]; 1–100× FTPC,prolongation of contraction time T1
CC(C)N(CCC(C(N)=O)(c1ccccc1)c1ccccn1)C(C)C (stereo not shown) [Disopyramide],LD50,rat; in vivo,"333 mg∙kg^-1 (rat, p. o.)"
same,T2-effective concentrations,[1],5 fold FTPC
same,significant T2 prolongation (p<0.05 and at least 15 % vs baseline),[1],Significant T2 prolongations
CN(CCOc1ccc(NS(C)(=O)=O)cc1)CCc1ccc(NS(C)(=O)=O)cc1 [Dofetilide],effect on T2 at 100-fold IC50 concentrations,[1],lack of effect
same,effect on the parameters studied (group 4),[1]; 1–100× FTPC,without any effect on the parameters studied
O=c1[nH]c2ccccc2n1CCCN1CCC(n2c(=O)[nH]c3cc(Cl)ccc32)CC1 [Domperidone],significant T2 prolongation (p<0.05 and at least 15 % vs baseline),[1],Significant T2 prolongations
CC(C)(C)c1ccc(C(=O)CCCN2CCC(OC(c3ccccc3)c3ccccc3)CC2)cc1 [Ebastine],significant T2 prolongation (p<0.05 and at least 15 % vs baseline),[1],Significant T2 prolongations
CC(C)(C(=O)O)c1ccc(C(O)CCCN2CCC(C(O)(c3ccccc3)c3ccccc3)CC2)cc1 (stereo not shown) [Fexofenadine],significant T2 prolongation (p<0.05 and at least 15 % vs baseline),[1],Significant T2 prolongations
O=C(NCC1CCCCN1)c1cc(OCC(F)(F)F)ccc1OCC(F)(F)F (stereo not shown) [Flecainide],LD50,rat; in vivo,"1.346 mg∙kg^-1 (rat, p. o.)"
same,significant T2 prolongation (p<0.05 and at least 15 % vs baseline),[1],Significant T2 prolongations
same,ability to mimic the effect of JTV519 on 4AP-induced changes,[1]; data not shown,did not mimic the effect of JTV519
CC[C@H](CO)Nc1nc(NCc2ccccc2)n2ncc(C(C)C)c2n1 [GP 0210],Effect on EHT contractility,"[1]; NCEs tested at 0.1, 1, 10 µM",-
CCCCCCCN(CC)CCCC(O)c1ccc(NS(C)(=O)=O)cc1 (stereo not shown) [Ibutilide],effect on T2 at 100-fold IC50 concentrations,[1],lack of effect
same,effect on the parameters studied (group 4),[1]; 1–100× FTPC,without any effect on the parameters studied
CN(C)CCCN1c2ccccc2CCc2ccccc21 [Imipramine],irregular beating as the primary effect,[1],induced irregular beating
COc1ccc2c(c1)CN(C(=O)CCN1CCC(Cc3ccccc3)CC1)CCS2 [JTV519],effect on the T2-prolonging effect of 4AP,[1]; [2],reduced the effect of 4AP
same,effect on 4AP-induced beating irregularity and aftercontractions,[1],completely abolished beating irregularity and aftercontractions
same,T2 values,"[1]; SEA0400 2 µM, JTV519 2 µM",80 ms
same,relaxation remaining prolonged with 4AP in presence of inhibitor,[1],~ 200%
OC(c1cc(C(F)(F)F)nc2c(C(F)(F)F)cccc12)C1CCCCN1 (stereo not shown) [Mefloquine],LD50,rat; in vivo,"880 mg∙kg^-1 (rat, p. o.)"
same,effect on contraction time T1 (group 3),[1]; 1–100× FTPC,prolongation of contraction time T1
COc1c(N2C[C@@H]3CCCN[C@@H]3C2)c(F)cc2c(=O)c(C(=O)O)cn(C3CC3)c12 [Moxifloxacin],T2-effective concentrations,[1],100 fold FTPC
same,significant T2 prolongation (p<0.05 and at least 15 % vs baseline),[1],Significant T2 prolongations
O=c1[nH]c2ccccc2n1C1CCN(CCCC(c2ccc(F)cc2)c2ccc(F)cc2)CC1 [Pimozide],LD50,mouse,"288 mg∙kg^-1 (mouse, p. o.)"
CCN(CC)CCNC(=O)c1ccc(N)cc1 [Procainamide],significant T2 prolongation (p<0.05 and at least 15 % vs baseline),[1],Significant T2 prolongations
Cc1nc2n(c(=O)c1CCN1CCC(c3noc4cc(F)ccc34)CC1)CCCC2 [Risperidone],LD50,rat; in vivo,"56,6 mg∙kg^-1 (rat, p. o.)"
CCOc1ccc(Oc2ccc(OCc3cc(F)ccc3F)cc2)c(N)c1 [SEA0400],effect on the T2-prolonging effect of 4AP,[1]; [2],reduced the effect of 4AP
same,effect on 4AP-induced beating irregularity and aftercontractions,[1],completely abolished beating irregularity and aftercontractions
same,T2 values,"[1]; SEA0400 2 µM, JTV519 2 µM",78 ms
same,relaxation remaining prolonged with 4AP in presence of inhibitor,[1],~ 200%
C[C@@H]1CN(c2c(F)c(N)c3c(=O)c(C(=O)O)cn(C4CC4)c3c2F)C[C@H](C)N1 [Sparfloxacin],significant T2 prolongation (p<0.05 and at least 15 % vs baseline),[1],Significant T2 prolongations
same,changes associated with T2 prolongation,"[1]; original recording, Supplemental Fig. 4",marked reduction of beating rate and an increase in twitch force
CC/C(=C(\c1ccccc1)c1ccc(OCCN(C)C)cc1)c1ccccc1 [Tamoxifen],LD50,rat; p. o.,"4.100 mg∙kg^-1 (rat, p. o.)"
CC(C)(C)c1ccc(C(O)CCCN2CCC(C(O)(c3ccccc3)c3ccccc3)CC2)cc1 (stereo not shown) [Terfenadine],effect on T2 (group 3),[1]; 1–100× FTPC,shortening of T2
CCCCNc1ccc(C(=O)OCCN(C)C)cc1 [Tetracaine],effect on the T2-prolonging effect of 4AP,[1]; [2],increased the T2-prolonging effect of 4AP
same,ability to mimic the effect of JTV519 on 4AP-induced changes,[1]; data not shown,did not mimic the effect of JTV519
NC1=N[C@H](O)[C@H]2[C@H]3O[C@]4(O)O[C@@H]([C@@H](O)[C@@]2(N1)[C@@H]4O)[C@]3(O)CO [Tetrodotoxin],effect of pure INa blockers on T1,[1],did not prolong T1
same,effect on the T2-prolonging effect of 4AP,[1],increased the T2-prolonging effect of 4AP
C/C=C(/C)C(=O)O[C@H]1C(C)=C2[C@H]([C@@H]1OC(=O)CCCCCCC)[C@@](C)(OC(C)=O)C[C@H](OC(=O)CCC)[C@@]1(O)[C@H]2OC(=O)[C@@]1(C)O [Thapsigargin],"effect on time of relaxation, alone",[1]; 3–30 nM,did not affect time of relaxation as such
same,effect on the T2-prolonging effect of 4AP,[1]; [2],increased the T2-prolonging effect of 4AP
CSc1ccc2c(c1)N(CCC1CCCCN1C)c1ccccc1S2 (stereo not shown) [Thioridazine],irregular beating as the primary effect,[1],induced irregular beating
Cn1c(=O)c2c(ncn2C)n(C)c1=O [caffeine],effect on beating rate and twitch,[1]; high concentration of caffeine (5 mM),reduced beating rate and induced a large and wide twitch
C[N+](C)(C)CCOC(N)=O [carbachol],effect on frequency of beating in the burst,[1]; carbachol 1 µM added to epinephrine 50 nM,reversed epinephrine effect and induced partial stop
same,EHTs that stopped spontaneous beating,[1]; carbachol 1 µM plus epinephrine,3/7
CCN(CC)CC(=O)Nc1c(C)cccc1C [lidocaine],effect of pure INa blockers on T1,[1]; data not shown,did not prolong T1
